Test results from ChEMBL document CHEMBL1136479, “DAPI derivative: a fluorescent DNA dye that can be covalently attached to biomolecules” (Bioorg Med Chem Lett, 2003).
“And” between values parts separate entries of the source, which are not always exact repeats. Equal values may be shown once.

Tests used:
[1] = The background fluorescence was measured in TE buffer in the absence of DNA
[2] = The background fluorescence was measured in TE buffer in the presence of calf thymus DNA (4 ug/mL) at a molar ratio of 2000:1 (Compound:DNA)
[3] = The background fluorescence was measured in TE buffer in the presence of calf thymus DNA (4 ug/mL) at a molar ratio of 4000:1 (Compound:DNA)
[4] = Enhancement in fluorescence intensity was calculated as fluorescence intensity in presence of DNA/fluorescence intensity in absence of DNA
[5] = The background fluorescence was measured in TE buffer in the presence of calf thymus DNA (4 ug/mL) at a molar ratio of 8000:1 (Compound:DNA)
[6] = The background fluorescence was measured in TE buffer in the presence of calf thymus DNA (4 ug/mL) at a molar ratio of 1000:1 (Compound:DNA)

Fluorescence intensity [1]	Fluorescence intensity [2]	Fluorescence intensity [3]	Enhancement [4]	Fluorescence intensity [5]	Fluorescence intensity [6]	SMILES
25.3 and 15.7 and 9.8	75	94.8	3.4 and 6 and 7.7	86.7	–	N=C(N)c1ccc(-c2[nH]c3cc(C(=N)N)ccc3c2Cc2cc([N+](=O)[O-])ccc2O)cc1
–	214	236	–	295	179	N=C(N)c1ccc(-c2cc3ccc(C(=N)N)cc3[nH]2)cc1
